Test results from PubChem BioAssay AID298 (DTP/NCI, 2004).
“And” between values parts separate entries of the source, which are not always exact repeats. Equal values may be shown once. Inconclusive results are not listed.

Test system: MX-1 breast xenograft, intrarenal, nude mice, tumor weight
Test: NCI In Vivo Anticancer Drug Screen. Data for tumor model Human Mammary Carcinoma MX-1 Xenograft (intrarenal inoculation) in NU/NU BALB/C (nude) mice
Details: endpoint: mean tumor weight change, higher = larger tumour
Procedure, shortened: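 Efficacy in vivo: tumor measurement or survival of treated animals divided by that of vehicle-dosed controls.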

[1] = dose: 37.5 mg/kg/injection, schedule: Q04DX003 (ip), vehicle: water
[2] = dose: 150.0 mg/kg/injection, schedule: Q04DX003 (ip), vehicle: DMSO
[3] = dose: 300.0 mg/kg/injection, schedule: Q04DX003 (ip), vehicle: DMSO

Nc1nc2c(ncn2C2OC(CO)C(O)C2O)c(=O)[nH]1 (centres undefined)
T/C (dose: 300.0 mg/kg/injection, schedule: Q04DX003 (sc), vehicle: saline with Tween-80): 84 % of control | T/C (dose: 600.0 mg/kg/injection, schedule: Q04DX003 (sc), vehicle: saline with Tween-80): 81 % of control | T/C (dose: 1200.0 mg/kg/injection, schedule: Q04DX003 (sc), vehicle: saline with Tween-80): 82 % of control | T/C (dose: 2400.0 mg/kg/injection, schedule: Q04DX003 (sc), vehicle: saline with Tween-80): 88 % of control

CS(=O)(=O)c1ncc(Br)cn1
T/C (dose: 25.0 mg/kg/injection, schedule: Q01DX010 (sc), vehicle: distilled water + Tween-80): 98 % of control | T/C (dose: 200.0 mg/kg/injection, schedule: Q01DX010 (sc), vehicle: distilled water + Tween-80): 118 % of control

CC(NNC(=S)N(C)C1CCCCC1)c1cc2ccccc2cn1 (centres undefined)
T/C (dose: 150.0 mg/kg/injection, schedule: Q04DX003 (ip), vehicle: saline): 80 % of control

Cc1cc2c(=O)cc(-c3ccccc3)oc2c(C(=O)O)c1C
T/C (dose: 125.0 mg/kg/injection, schedule: Q04DX003 (ip), vehicle: saline with Tween-80): 109 % of control | T/C (dose: 250.0 mg/kg/injection, schedule: Q04DX003 (ip), vehicle: saline with Tween-80): 99 % of control

N/C(=N\O)c1cn(C2OC(CO)C(O)C2O)c2ncnc(N)c12 (centres undefined)
T/C (dose: 5.0 mg/kg/injection, schedule: Q04DX003 (sc), vehicle: Klucel (hydroxypropylcellulose) (HPC)): 91 % of control | T/C (dose: 10.0 mg/kg/injection, schedule: Q04DX003 (sc), vehicle: Klucel (hydroxypropylcellulose) (HPC)): 70 % of control

COC1C(CO)OC(n2c3c(Cl)cccc3c3c4c(c5c6cccc(Cl)c6[nH]c5c32)C(=O)NC4=O)C(O)C1O (centres undefined)
T/C (dose: 100.0 mg/kg/injection, schedule: Q04DX003 (ip), vehicle: distilled water + Tween-80): 69 % of control | T/C (dose: 200.0 mg/kg/injection, schedule: Q04DX003 (ip), vehicle: distilled water + Tween-80): 43 % of control | T/C (dose: 400.0 mg/kg/injection, schedule: Q04DX003 (ip), vehicle: distilled water + Tween-80): 21 % of control | T/C (dose: 800.0 mg/kg/injection, schedule: Q04DX003 (ip), vehicle: distilled water + Tween-80): 30 % of control

CCC1(O)C(=O)OCc2c1cc1n(c2=O)Cc2cc3cc4c(cc3nc2-1)OCO4 (centres undefined)
T/C (dose: 4.0 mg/kg/injection, schedule: Q04DX003 (ip), vehicle: saline with Tween-80): -100 % of control

CN(Cc1cnc2nc(N)nc(N)c2n1)c1ccc(C(=O)NC(CCC(=O)OCc2cc3c(cc2Cl)OCO3)C(=O)OCc2cc3c(cc2Cl)OCO3)cc1 (centres undefined)
T/C (dose: 7.5 mg/kg/injection, schedule: Q04DX003 (ip), vehicle: saline with Tween-80): 75 % of control

O=C1C2C3C=CC(C2C(=O)N1CO)C1C2C(=O)N(CO)C(=O)C2C31 (centres undefined)
T/C [1]: 110 % of control | T/C (dose: 75.0 mg/kg/injection, schedule: Q04DX003 (ip), vehicle: water): 71 % of control

NCc1cc(O)c(O)c(O)c1
T/C (dose: 150.0 mg/kg/injection, schedule: Q04DX003 (ip), vehicle: water): 99 % of control | T/C (dose: 300.0 mg/kg/injection, schedule: Q04DX003 (ip), vehicle: water): 120 % of control | T/C (dose: 600.0 mg/kg/injection, schedule: Q04DX003 (ip), vehicle: water): 89 % of control | T/C (dose: 1200.0 mg/kg/injection, schedule: Q04DX003 (ip), vehicle: water): 91 % of control

Nc1nc(Br)nc2c1ncn2C1CC(O)C(CO)O1 (centres undefined)
T/C (dose: 7.5 mg/kg/injection, schedule: Q03DX003 (ip), vehicle: saline): 109 % of control | T/C (dose: 15.0 mg/kg/injection, schedule: Q03DX003 (ip), vehicle: saline): 88 % of control | T/C (dose: 30.0 mg/kg/injection, schedule: Q03DX003 (ip), vehicle: saline): 43 % of control | T/C (dose: 60.0 mg/kg/injection, schedule: Q03DX003 (ip), vehicle: saline): 59 % of control | T/C (dose: 120.0 mg/kg/injection, schedule: Q03DX003 (ip), vehicle: saline): 65 % of control

C=Cc1cc(OC)c2c(c1)c(=O)oc1c2cc(OC)c2c(O)ccc(C3OC(C)C(O)C(C)(O)C3O)c21 (centres undefined)
T/C (dose: 37.5 mg/kg/injection, schedule: Q04DX003 (ip), vehicle: DMSO): 95 % of control | T/C (dose: 75.0 mg/kg/injection, schedule: Q04DX003 (ip), vehicle: DMSO): 86 % of control | T/C [2]: 79 % of control | T/C [3]: 64 % of control

O=S(=O)(O)O.[NH-]C1CCCCC1[NH-].[Pt+2] (centres undefined)
T/C (dose: 0.63 mg/kg/injection, schedule: Q01DX010 (sc), vehicle: dextrose): 81 % of control | T/C (dose: 1.25 mg/kg/injection, schedule: Q01DX010 (sc), vehicle: dextrose): 41 % of control | T/C (dose: 2.5 mg/kg/injection, schedule: Q01DX010 (sc), vehicle: dextrose): 6 % of control

NCCCN=c1ccc2c3c1c(O)c1c(O)ccc(=O)c1c3[nH]n2CCNCCO
T/C (dose: 9.35 mg/kg/injection, schedule: Q04DX003 (ip), vehicle: water): 19 % of control | T/C (dose: 9.38 mg/kg/injection, schedule: Q04DX003 (ip), vehicle: water): 11 % of control | T/C (dose: 18.75 mg/kg/injection, schedule: Q04DX003 (ip), vehicle: water): -33 % of control and -19 % of control and -16 % of control | T/C [1]: -87 % of control and -83 % of control and -100 % of control

NC(=O)c1[nH]cnc1O
T/C (dose: 50.0 mg/kg/injection, schedule: Q04DX003 (ip), vehicle: saline with Tween-80): 96 % of control | T/C (dose: 100.0 mg/kg/injection, schedule: Q04DX003 (ip), vehicle: saline with Tween-80): 112 % of control and 119 % of control | T/C (dose: 400.0 mg/kg/injection, schedule: Q04DX003 (ip), vehicle: saline with Tween-80): 81 % of control | T/C (dose: 800.0 mg/kg/injection, schedule: Q04DX003 (ip), vehicle: saline with Tween-80): 69 % of control

COC(=O)C1C2CCCN2OC1(C)CO (centres undefined)
T/C (dose: 30.0 mg/kg/injection, schedule: Q01DX001 (ip), vehicle: saline): 224 % of control | T/C (dose: 240.0 mg/kg/injection, schedule: Q01DX001 (ip), vehicle: saline): 118 % of control | T/C (dose: 480.0 mg/kg/injection, schedule: Q01DX001 (ip), vehicle: saline): 80 % of control

C[CH2][Sn]([Cl])([CH2]C)[c]1cc[c]([Sn]([Cl])([CH2]C)[CH2]C)cc1
T/C (dose: 0.25 mg/kg/injection, schedule: Q04DX003 (ip), vehicle: Klucel (hydroxypropylcellulose) (HPC)): 103 % of control | T/C (dose: 0.5 mg/kg/injection, schedule: Q04DX003 (ip), vehicle: Klucel (hydroxypropylcellulose) (HPC)): 109 % of control | T/C (dose: 1.0 mg/kg/injection, schedule: Q04DX003 (ip), vehicle: Klucel (hydroxypropylcellulose) (HPC)): 95 % of control

COC1=C(OC)C(=O)C(SC/C=C(\C)CCCC(C)CCCC(C)CCCC(C)C)=CC1=O (centres undefined)
T/C (dose: 300.0 mg/kg/injection, schedule: Q04DX003 (ip), vehicle: saline with Tween-80): 220 % of control | T/C (dose: 600.0 mg/kg/injection, schedule: Q04DX003 (ip), vehicle: saline with Tween-80): 61 % of control | T/C (dose: 1200.0 mg/kg/injection, schedule: Q04DX003 (ip), vehicle: saline with Tween-80): 75 % of control

C/C=C\C1OC1(C)c1cc(=O)c2c(C)cc3c(c2o1)C(=O)c1c(O)c(C2CC(C)(N(C)C)C(OC(C)=O)C(C)O2)cc(C2CC(N(C)C)C(O)C(C)O2)c1C3=O (centres undefined)
T/C (dose: 0.75 mg/kg/injection, schedule: Q04DX003 (ip), vehicle: saline + alcohol): 89 % of control | T/C (dose: 1.5 mg/kg/injection, schedule: Q04DX003 (ip), vehicle: saline + alcohol): 34 % of control and 50 % of control | T/C (dose: 3.0 mg/kg/injection, schedule: Q04DX003 (ip), vehicle: saline + alcohol): 29 % of control and 47 % of control | T/C (dose: 6.0 mg/kg/injection, schedule: Q04DX003 (ip), vehicle: saline + alcohol): 11 % of control and 32 % of control | T/C (dose: 12.0 mg/kg/injection, schedule: Q04DX003 (ip), vehicle: saline + alcohol): 39 % of control

CCCC1(c2ccccc2)C(=O)NCNC1=O
T/C (dose: 150.0 mg/kg/injection, schedule: Q04DX003 (ip), vehicle: Klucel (hydroxypropylcellulose) (HPC)): 92 % of control | T/C (dose: 300.0 mg/kg/injection, schedule: Q04DX003 (ip), vehicle: Klucel (hydroxypropylcellulose) (HPC)): 95 % of control | T/C (dose: 600.0 mg/kg/injection, schedule: Q04DX003 (ip), vehicle: Klucel (hydroxypropylcellulose) (HPC)): 88 % of control | T/C (dose: 1200.0 mg/kg/injection, schedule: Q04DX003 (ip), vehicle: Klucel (hydroxypropylcellulose) (HPC)): 55 % of control

CC1(C)Nc2cc3c(cc2-n2cccc21)oc1ccccc13
T/C [2]: 113 % of control | T/C [3]: 90 % of control | T/C (dose: 600.0 mg/kg/injection, schedule: Q04DX003 (ip), vehicle: DMSO): 83 % of control | T/C (dose: 1200.0 mg/kg/injection, schedule: Q04DX003 (ip), vehicle: DMSO): 80 % of control

CN=C(N)c1ccc(N=C(N)c2ccc(C(N)=Nc3ccc(C(N)=NC)cc3)cc2)cc1
T/C (dose: 15.0 mg/kg/injection, schedule: Q04DX003 (ip), vehicle: saline): 96 % of control | T/C (dose: 30.0 mg/kg/injection, schedule: Q04DX003 (ip), vehicle: saline): 118 % of control

NC(CCl)=NCC12CC3CC(CC(C3)C1)C2
T/C (dose: 37.5 mg/kg/injection, schedule: Q04DX003 (sc), vehicle: Klucel (hydroxypropylcellulose) (HPC)): 102 % of control | T/C (dose: 75.0 mg/kg/injection, schedule: Q04DX003 (sc), vehicle: Klucel (hydroxypropylcellulose) (HPC)): 104 % of control
